In ChEMBL document CHEMBL2074198, “Influence of passive permeability on apparent P-glycoprotein kinetics” (Pharm Res, 2000):

Experiments:
[1] = target: T1, ATP-dependent translocase ABCB1 (Homo sapiens, UniProt P08183); assay: TP_TRANSPORTER: inhibition of Vinblastine transepithelial transport (basal to apical) (Vinblastine: 0.004 uM, […]: 3000 uM) in Caco-2 cells; format: functional, cell-based; settings: caco-2, 3000 µM
[2] = target: T1, ATP-dependent translocase ABCB1; assay: TP_TRANSPORTER: inhibition of Vinblastine transepithelial transport (basal to apical)(Vinblastine: 0.004 uM, Nicardipine: 60 uM) in Caco-2 cells; format: functional, cell-based; settings: caco-2, 60 µM

T1 sequence (P08183 whole entry): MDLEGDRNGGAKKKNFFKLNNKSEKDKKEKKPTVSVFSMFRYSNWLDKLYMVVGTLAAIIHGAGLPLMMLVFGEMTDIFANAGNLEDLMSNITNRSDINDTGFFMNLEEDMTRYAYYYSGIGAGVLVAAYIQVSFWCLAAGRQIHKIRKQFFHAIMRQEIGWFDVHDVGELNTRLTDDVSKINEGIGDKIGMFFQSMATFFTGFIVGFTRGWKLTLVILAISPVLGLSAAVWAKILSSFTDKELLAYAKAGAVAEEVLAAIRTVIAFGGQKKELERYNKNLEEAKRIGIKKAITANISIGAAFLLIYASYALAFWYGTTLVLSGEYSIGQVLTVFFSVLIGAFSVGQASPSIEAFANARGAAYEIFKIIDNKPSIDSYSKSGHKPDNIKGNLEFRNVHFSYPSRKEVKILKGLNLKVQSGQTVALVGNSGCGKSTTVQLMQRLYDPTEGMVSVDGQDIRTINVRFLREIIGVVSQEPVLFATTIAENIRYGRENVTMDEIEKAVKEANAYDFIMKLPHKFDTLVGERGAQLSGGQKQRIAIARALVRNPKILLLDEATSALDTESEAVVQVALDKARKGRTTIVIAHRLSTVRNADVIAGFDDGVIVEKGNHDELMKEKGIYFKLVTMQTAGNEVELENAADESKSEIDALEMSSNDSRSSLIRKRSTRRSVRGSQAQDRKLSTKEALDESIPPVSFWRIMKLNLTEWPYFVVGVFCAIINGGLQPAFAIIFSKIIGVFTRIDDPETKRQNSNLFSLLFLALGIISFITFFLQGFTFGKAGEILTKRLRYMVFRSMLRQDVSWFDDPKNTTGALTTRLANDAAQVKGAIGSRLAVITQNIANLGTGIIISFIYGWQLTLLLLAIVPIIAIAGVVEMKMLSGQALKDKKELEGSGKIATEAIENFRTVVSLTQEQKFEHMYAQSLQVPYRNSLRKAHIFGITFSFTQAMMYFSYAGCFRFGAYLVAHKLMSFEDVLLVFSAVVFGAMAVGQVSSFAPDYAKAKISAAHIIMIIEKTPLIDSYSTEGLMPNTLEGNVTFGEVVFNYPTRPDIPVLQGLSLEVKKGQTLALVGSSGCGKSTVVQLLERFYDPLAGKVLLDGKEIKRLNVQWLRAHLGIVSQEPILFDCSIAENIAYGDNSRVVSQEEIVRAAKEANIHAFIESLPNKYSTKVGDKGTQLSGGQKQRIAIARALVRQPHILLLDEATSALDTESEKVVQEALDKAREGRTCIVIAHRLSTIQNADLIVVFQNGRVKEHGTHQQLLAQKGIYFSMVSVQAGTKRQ

Activity [1]	Activity [2]	SMILES
inhibitor [+]	–	CNC(=C[N+](=O)[O-])NCCSCc1ccc(CN(C)C)o1 [RANITIDINE]
–	inhibitor [+]	COC(=O)C1=C(C)NC(C)=C(C(=O)OCCN(C)Cc2ccccc2)C1c1cccc([N+](=O)[O-])c1 (configuration not stated) [NICARDIPINE]
